Reference: patent US20120065210A1, “SUBSTITUTED HEXAHYDROPYRROLO[1,2-C]IMIDAZOLONES” (priority 2010, published 2012)

Target: interaction between p53 and MDM2 proteins (recombinant GST-tagged MDM2, p53 peptide) (Homo sapiens, UniProt Q00987)
Test: HTRF assay of inhibition of the p53-MDM2 interaction (GST-MDM2 / biotinylated p53 peptide)
Type: binding
Details: bsa: 0.02%
Method: The ability of the compounds to inhibit the interaction between p53 and MDM2 proteins was measured by an HTRF (homogeneous time-resolved fluorescence) assay in which recombinant GST-tagged MDM2 binds to a peptide that resembles the MDM2-interacting region of p53. Binding of GST-MDM2 protein and p53-peptide (biotinylated on its N-terminal end) is registered by the FRET (fluorescence resonance energy transfer) between Europium (Eu)-labeled anti-GST antibody and streptavidin-conjugated Allophycocyanin (APC).
Add 10 uL diluted compounds (1:5 dilution in reaction buffer) to each well, mix by shaking Add 20 uL biotinylated p53 peptide (180 nM working solution) in reaction buffer to each well and mix on shaker. Incubate at 37° C. for 1 h. Add 20 uL streptavidin-APC and Eu-anti-GST antibody mixture (6 nM Eu-anti-GST and 60 nM streptavidin-APC working solution) in TBS buffer with 0.2% BSA, shake at room temperature for 30 minutes and read using a TRF-capable plate reader at
665 and 615 nm (Victor 5, Perkin ElmerWallac), If not specified, the reagents were purchased from Sigma Chemical Co.

Chain of interaction between p53 and MDM2 proteins (recombinant GST-tagged MDM2, p53 peptide) (Q00987 whole entry): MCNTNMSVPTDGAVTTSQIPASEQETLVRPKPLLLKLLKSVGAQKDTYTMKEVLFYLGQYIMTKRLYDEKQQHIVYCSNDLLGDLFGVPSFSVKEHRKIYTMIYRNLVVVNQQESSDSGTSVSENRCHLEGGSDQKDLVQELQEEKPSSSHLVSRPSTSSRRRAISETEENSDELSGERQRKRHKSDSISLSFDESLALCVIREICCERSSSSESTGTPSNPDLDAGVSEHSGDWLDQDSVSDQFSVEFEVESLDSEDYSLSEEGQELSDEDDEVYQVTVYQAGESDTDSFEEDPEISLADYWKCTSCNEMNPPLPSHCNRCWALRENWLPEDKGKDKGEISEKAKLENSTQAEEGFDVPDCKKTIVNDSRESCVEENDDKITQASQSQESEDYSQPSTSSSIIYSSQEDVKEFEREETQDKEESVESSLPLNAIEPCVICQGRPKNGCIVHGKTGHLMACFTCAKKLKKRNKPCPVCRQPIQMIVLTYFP

SMILES	IC50 [nM]
CC(C)(C)C[C@@H]1N2[C@H](CC3CCCCC3)N(c3ccc(C(=O)O)cc3)C(=O)[C@H]2[C@H](c2cccc(Cl)c2F)[C@@]1(C#N)c1ccc(Cl)cc1F (racemic) [Example 35, rac-4-[(3S,5S,6R,7S,7aR)-7-(3-chloro-2-fluoro-phenyl)-6-(4-chloro-2-fluoro-phenyl)-6-cyano-3-cyclohexylmethyl-5-(2,2-dimethyl-propyl)-1-oxo-tetrahydro-pyrrolo[1,2-c]imidazol-2-yl]-benzoic acid]	15
COc1cc(N2CN3[C@@H](CC(C)(C)C)[C@](C#N)(c4ccc(Cl)cc4F)[C@@H](c4cccc(Cl)c4F)[C@@H]3C2=O)ccc1C(=O)O [Example 1, 4-[(5S,6R,7S,7aR)-7-(3-chloro-2-fluoro-phenyl)-6-(4-chloro-2-fluoro-phenyl)-6-cyano-5-(2,2-dimethyl-propyl)-1-oxo-tetrahydro-pyrrolo[1,2-c]imidazol-2-yl]-2-methoxy-benzoic acid]	8
CC(C)(C)C[C@@H]1N2CN(c3ccc(C(=O)O)cc3)C(=O)[C@H]2[C@H](c2cccc(Cl)c2F)[C@@]1(C#N)c1ccc(Cl)cc1F [Example 2, 4-[(5S,6R,7S,7aR)-7-(3-chloro-2-fluoro-phenyl)-6-(4-chloro-2-fluoro-phenyl)-6-cyano-5-(2,2-dimethyl-propyl)-1-oxo-tetrahydro-pyrrolo[1,2-c]imidazol-2-yl]-benzoic acid]	8
COc1cc(C(=O)O)ccc1N1CN2[C@@H](CC(C)(C)C)[C@](C#N)(c3ccc(Cl)cc3F)[C@@H](c3cccc(Cl)c3F)[C@@H]2C1=O [Example 3, 4-[(5S,6R,7S,7aR)-7-(3-chloro-2-fluoro-phenyl)-6-(4-chloro-2-fluoro-phenyl)-6-cyano-5-(2,2-dimethyl-propyl)-1-oxo-tetrahydro-pyrrolo[1,2-c]imidazol-2-yl]-3-methoxy-benzoic acid]	13
CC(C)(C)C[C@@H]1N2CN(CC(=O)O)C(=O)[C@H]2[C@H](c2cccc(Cl)c2F)[C@@]1(C#N)c1ccc(Cl)cc1F [Example 4, [(5S,6R,7S,7aR)-7-(3-chloro-2-fluoro-phenyl)-6-(4-chloro-2-fluoro-phenyl)-6-cyano-5-(2,2-dimethyl-propyl)-1-oxo-tetrahydro-pyrrolo[1,2-c]imidazol-2-yl]-acetic acid]	10
CC(C)(C)C[C@@H]1N2CN(c3ccc(C(=O)O)cc3O)C(=O)[C@H]2[C@H](c2cccc(Cl)c2F)[C@@]1(C#N)c1ccc(Cl)cc1F [Example 6, 4-[(5S,6R,7S,7aR)-7-(3-chloro-2-fluoro-phenyl)-6-(4-chloro-2-fluoro-phenyl)-6-cyano-5-(2,2-dimethyl-propyl)-1-oxo-tetrahydro-pyrrolo[1,2-c]imidazol-2-yl]-3-hydroxy-benzoic acid]	13
CC(C)(C)C[C@@H]1N2CN(c3ccc(C(=O)O)c(C(F)(F)F)c3)C(=O)[C@H]2[C@H](c2cccc(Cl)c2F)[C@@]1(C#N)c1ccc(Cl)cc1F [Example 7, 4-[(5S,6R,7S,7aR)-7-(3-chloro-2-fluoro-phenyl)-6-(4-chloro-2-fluoro-phenyl)-6-cyano-5-(2,2-dimethyl-propyl)-1-oxo-tetrahydro-pyrrolo[1,2-c]imidazol-2-yl]-2-trifluoromethyl-benzoic acid]	21
C=CCC[C@@H]1N(c2ccc(C(=O)O)c(OC)c2)C(=O)[C@H]2[C@H](c3cccc(Cl)c3F)[C@@](C#N)(c3ccc(Cl)cc3F)[C@H](CC(C)(C)C)N12 [Example 41, 4-[(3S,5S,6R,7S,7aR)-3-but-3-enyl-7-(3-chloro-2-fluoro-phenyl)-6-(4-chloro-2-fluoro-phenyl)-6-cyano-5-(2,2-dimethyl-propyl)-1-oxo-tetrahydro-pyrrolo[1,2-c]imidazol-2-yl]-2-methoxy-benzoic acid]	9
